Laboratory results reported in patent publication EP0813871A1, “Berberine derivates for inhibiting production of HSP47” (Kureha Chemical Industry Co., Ltd., priority 1996, dated 1997).
Counter-ions that a name gives are not always drawn.

Legend:
[1] = tested on: HSP47; test: Inhibition of HSP47 production in heat-shocked human cancer cell lines (Western blotting); format: cell-based; conditions: Western blot, 20 µM
Description: The following various human cancer cell lines were cultured under 5% CO2, at 37 °C, except for the heat shock treatment period. The lung cancer cell line H69 (ATCC HTB 119), the stomach cancer cell line KATO III (ATCC HTB 103), the colon cancer cell line COLO 205 (ATCC CCL 222), and the prostate cancer cell line DU145 (ATCC HTB 81) were cultured in an RPMI1640 medium containing 10% inactivated FBS.
The breast cancer cell line MCF7 (ATCC HTB 22) was cultured in an RPMI1640 medium containing 10^-8 M β-estradiol and 10% inactivated FBS.
The kidney cancer cell line ACHN (ATCC CRL 1611) was cultured in an MEM medium containing 10% inactivated FBS.
The berberine hydrochloride of the formula (III) (the final concentration = 20 µM: Matsuura Yakugyo) was added to each medium of the above human cancer cell lines 2 days after the inoculation. After the berberine hydrochloride treatment for 24 hours, a heat shock was applied at 45 °C for 15 minutes, and the cells were then cultured at 37 °C overnight. The control tests were carried out by performing the above procedures except that the berberine hydrochloride was not added.
The cells treated in the above (2) were homogenized, and the amounts of HSP47 produced were measured by the Western blotting method.
The cells treated in the above (2) were washed with PBS(-), and 1 ml of lysis buffer [1.0% NP-40, 0.15 M sodium chloride, 50 mM Tris-HCl (pH 8.0), 5 mM-EDTA, 2 mM-N-ethylmaleimide, 2 mM phenylmethylsulfonyl fluoride, 2 µg/ml leupeptin, and 2 µg/ml pepstatin] was added. The whole was allowed to stand for 20 minutes on ice, and then centrifuged at 4 °C and 12000 rpm for 20 minutes. The resulting supernatant (10 µl) was added to 790 µl of PBS(-), and then 200 µl of a protein assay dye reagent solution (Dye Reagent Concentrate: Bio-Rad Laboratories, Catalogue No. 500-0006) was added. The whole was allowed to stand at room temperature for 5 minutes, and the absorbance at 595 nm was measured to determine the amounts of proteins.
For the SDS-polyacrylamide gel electrophoresis (SDS-PAGE) of the samples, the protein concentration of which were measured, aliquots containing the same amount of protein were loaded onto the gel. The SDS-PAGE was performed according to the Laemmli method. After the electrophoresis, the blotting and then blocking were carried out in accordance with the methods described in Example 1. More particularly, the gel was brought into contact with a 0.45 µm nitrocellulose membrane (Schleicher & Schuell, Catalogue No. 401196) at room temperature and 100 V, using a protein-transferring apparatus (Trans-Blot Electrophoretic Transfer Cell: Bio-Rad), and blotting was carried out for 3 hours. The blotting buffer used was same as that used in Example 1 (3). After blotting, the nitrocellulose membrane was incubated in a 10% skimmed milk-PBS(-) solution at room temperature for 30 minutes, to block non-specific bindings.
After blocking, the first antibody reaction was carried out on the nitrocellulose membrane, using a screener blotter (Sanplatec), and the anti-human-HSP47 rat polyclonal antibody prepared in Example 1. Thereafter, the nitrocellulose membrane was washed with two fresh PBS(-) solutions for 5 minutes, using a slow rocking shaker, and then with four fresh PBS(-)-0.1% Tween 20 (Bio-Rad, Catalogue No. 170-6531) solutions for 15 minutes, and finally, with two fresh PBS(-) solutions for 5 minutes.
After washing, the second antibody reaction was carried out for 2 hours, using 5 ml of a solution prepared by diluting a peroxidase-labeled goat anti-rat IgG antibody (Southern Biotechnology, Catalogue No. 3030-05) 5000-fold with a PBS(-) solution containing 2% skimmed milk. After the reaction, the nitrocellulose membrane was washed with two fresh PBS(-) solutions for 5 minutes, and with five fresh PBS(-)-0.1% Tween 20 solutions for 15 minutes, using a slow rocking shaker, and finally, with two fresh PBS(-) solutions for 5 minutes. […]

[2] = tested on: mice; conditions: P. acnes intraperitoneally, lipopolysaccharide intraperitoneally 7 days later; cited from earlier work
[3] = agent containing berberine as an active ingredient; cited from earlier work

In the case of `COc1ccc2cc3[n+](cc2c1OC)CCc1cc2c(cc1-3)OCO2` [berberine hydrochloride], the “band of the molecular weight of approximately 47 kDa” value (“band” for short) ([1]; breast cancer cell line MCF7) is reported as “no band of the molecular weight of approximately 47 kDa was detected”, the “band” value ([1]; colon cancer cell line COLO 205) is reported as “no band of the molecular weight of approximately 47 kDa was detected” and the “band” value ([1]; kidney cancer cell line ACHN, in comparison with the control tests) is reported as “faint”. For the same compound, the “band” value ([1]; lung cancer cell line H69) was “no band of the molecular weight of approximately 47 kDa was detected”, the “band” value ([1]; prostate cancer cell line DU145) was “no band of the molecular weight of approximately 47 kDa was detected” and the “band” value ([1]; stomach cancer cell line KATO III) was “no band of the molecular weight of approximately 47 kDa was detected”.
In the case of `COc1ccc2cc3[n+](cc2c1OC)CCc1cc2c(cc1-3)OCO2` [berberine], the “survival rate of mice” value [2] is given as “effectively improved” and the “anti-GEM (glomerular basement membrane) nephritis” value [3] is given as “effectively improved”.
